Publication PMC3254807 (2011)

Molecular target: Na+/K+ ATPase
Assay: colorimetric ATPase assay
Assay type: biochemical, Sus scrofa

SMILES | IC50
C[C@@H]1O[C@@H](O[C@H]2CC[C@@]3(C)[C@H](CC[C@@H]4[C@@H]3CC[C@]3(C)[C@@H](C5=CC(=O)OC5)CC[C@]43O)C2)[C@H](O)[C@H](O)[C@H]1O [D6-MA] | 1.1 µM
C[C@H]1O[C@@H](O[C@H]2[C@@H](O)C[C@H](O[C@H]3[C@@H](O)C[C@H](O[C@H]4CC[C@@]5(C)[C@H](CC[C@@H]6[C@@H]5CC[C@]5(C)[C@@H](C7=CC(=O)OC7)CC[C@]65O)C4)O[C@@H]3C)O[C@@H]2C)C[C@H](O)[C@@H]1O [Digitoxin] | 2.8 µM
